Experimental data reported in patent publication US8846933B2, “N-link hydroxamic acid derivatives useful as antibacterial agents” (Pfizer Inc., priority 2009, dated 2014).

Columns and labels:
Format in all cases: cell-based
Conditions in all cases: unit assumed
[1] = test system: Pseudomonas aeruginosa UI-18: Wild-type (PA-7); test: MIC determination (CLSI), strain PA-7
Procedure, shortened: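 MIC determined by broth dilution per CLSI M7-A7 guidelines with M100-S18 interpretive standards. Test organism: wild-type Pseudomonas aeruginosa UI-18, designated PA-7.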

[2] = test system: Escherichia coli EC-1: VOGEL, mouse virulent; test: MIC determination (CLSI), strain EC-1
Procedure, shortened: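 The mouse-virulent VOGEL isolate of E. coli, EC-1, served as test organism. Minimum inhibitory concentration was measured by CLSI dilution methodology (M7-A7; M100-S18 standards).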

[3] = test system: Acinetobacter baumanii/haemolyticus: Multidrug-resistant clinical isolate (AB-3167); test: MIC determination (CLSI), strain AB-3167
Method: The in vitro antibacterial activity of compounds described in the Examples was evaluated by minimum inhibitory concentration (MIC) testing according to Clinical and Laboratory Standards Institute (CLSI, formerly NCCLS) guidelines. See: Clinical and Laboratory Standards Institute. Methods for Dilution Antimicrobial Susceptibility Tests for Bacteria that Grow Aerobically; Approved Standard-Seventh Edition. CLSI document M7-A7 [ISBN 1-56238-587-9]. Clinical and Laboratory Standards Institute, 940 West Valley Road, Suite 1400, Wayne, Pa. 19087-1898 USA, 2006; also Clinical and Laboratory Standards Institute. Performance Standards for Antimicrobial Susceptibility Testing; Eighteenth Informational Supplement. CLSI document M100-S18 [ISBN1-56238-653-0].Clinical and Laboratory Standards Institute.
The following bacterial strains were used in these MIC determinations:
2) Acinetobacter baumanii/haemolyticus: Multidrug-resistant clinical isolate labeled as AB-3167 in Tables 4 and 5;

[4] = Pseudomonas aeruginosa UI-18, wild-type
[5] = Escherichia coli EC-1, VOGEL, mouse virulent
[6] = strain PA-7, generated in the same manner as in Table 4
[7] = strain EC-1, generated in the same manner as in Table 4

## C[C@@](CCn1ccc(-c2ccc(CC3CC(O)C3)cc2)cc1=O)(C(=O)NO)S(C)(=O)=O (stereo partly drawn) [Example 68-M, (2R)-N-hydroxy-4-[4-{4-[(3-hydroxycyclobutyl)methyl]phenyl}-2-oxopyridin-1(2H)-yl]-2-methyl-2-(methylsulfonyl)butanamide]
[1]; [4]
  PA-7 (MIC): 2 µg/mL
[2]; [5]
  EC-1 (MIC): 0.5 µg/mL
[3]
  AB-3167 (MIC): > 64 µg/mL

## C[C@@](CCn1ccc(-c2ccc(OC[C@H]3CC[C@@H](O)CC3)cc2F)cc1=O)(C(=O)NO)S(C)(=O)=O [Example 10-L, (2R)-4-[4-{2-fluoro-4-[(cis-4-hydroxycyclohexyl)methoxy]phenyl}-2-oxopyridin-1(2H)-yl]-N-hydroxy-2-methyl-2-(methylsulfonyl)butanamide]
[1]; [4]
  PA-7 (MIC): 1 µg/mL
[2]; [5]
  EC-1 (MIC): 0.25 µg/mL
[3]
  AB-3167 (MIC): > 64 µg/mL

## C[C@@](CCn1ccc(-c2ccc(-n3cccn3)cc2)cc1=O)(C(=O)NO)S(C)(=O)=O [Example 1, (2R)-N-hydroxy-2-methyl-2-(methylsulfonyl)-4-{2-oxo-4-[4-(1H-pyrazol-1-yl)phenyl]pyridin-1(2H)-yl}butanamide]
[1]; [4]
  PA-7 (MIC): 2 µg/mL
[2]; [5]
  EC-1 (MIC): 0.5 µg/mL
[3]
  AB-3167 (MIC): > 64 µg/mL

## Cn1c(-c2ccn(CCC(C)(C(=O)NO)S(C)(=O)=O)c(=O)c2)cc2ccccc21 (centres unmarked) [Example 68-R, N-hydroxy-2-methyl-4-[4-(1-methyl-1H-indol-2-yl)-2-oxopyridin-1(2H)-yl]-2-(methylsulfonyl)butanamide]
[1]; [4]
  PA-7 (MIC): 8 µg/mL
[2]; [5]
  EC-1 (MIC): 4 µg/mL
[3]
  AB-3167 (MIC): > 64 µg/mL

## C[C@@](CCn1ccc(-c2ccc([C@H]3C[C@@](C)(O)C3)cc2)cc1=O)(C(=O)NO)S(C)(=O)=O [Example 68-H, (2R)-N-hydroxy-4-{4-[4-(cis-3-hydroxy-3-methylcyclobutyl)phenyl]-2-oxopyridin-1(2H)-yl}-2-methyl-2-(methylsulfonyl)butanamide]
[1]; [4]
  PA-7 (MIC): 1 µg/mL
[2]; [5]
  EC-1 (MIC): 2 µg/mL
[3]
  AB-3167 (MIC): > 64 µg/mL

## C[C@@](CCn1ccc(-c2ccccc2F)cc1=O)(C(=O)NO)S(C)(=O)=O [Example 43, (2R)-4-[4-(2-fluorophenyl)-2-oxopyridin-1(2H)-yl]-N-hydroxy-2-methyl-2-(methylsulfonyl)butanamide]
[1]; [4]
  PA-7 (MIC): 0.5 µg/mL
[2]; [5]
  EC-1 (MIC): 1 µg/mL
[3]
  AB-3167 (MIC): > 64 µg/mL

## Cc1c(-c2ccc(-n3nccn3)cc2)ccn(CC[C@](C)(C(=O)NO)S(C)(=O)=O)c1=O [Example 68-J, (2R)-N-hydroxy-2-methyl-4-{3-methyl-2-oxo-4-[4-(2H-1,2,3-triazol-2-yl)phenyl]pyridin-1(2H)-yl}-2-(methylsulfonyl)butanamide]
[1]; [4]
  PA-7 (MIC): 1 µg/mL
[2]; [5]
  EC-1 (MIC): 0.125 µg/mL
[3]
  AB-3167 (MIC): > 64 µg/mL

## CC(O)c1ccc(-c2ccn(CCC(C)(C(=O)NO)S(C)(=O)=O)c(=O)c2)cc1 (centres unmarked) [Example 68-Q, N-hydroxy-4-{4-[4-(1-hydroxyethyl)phenyl]-2-oxopyridin-1(2H)-yl}-2-methyl-2-(methylsulfonyl)butanamide]
[1]; [4]
  PA-7 (MIC): 16 µg/mL
[2]; [5]
  EC-1 (MIC): 64 µg/mL
[3]
  AB-3167 (MIC): > 64 µg/mL

## CC(CCn1ccc(-c2ccc(C(F)(F)F)cc2C(F)(F)F)cc1=O)(C(=O)NO)S(C)(=O)=O (centres unmarked) [Example 174, 4-{4-[2,4-bis(trifluoromethyl)phenyl]-2-oxopyridin-1(2H)-yl}-N-hydroxy-2-methyl-2-(methylsulfonyl)butanamide]
[1]; [6]
  PA-7 (MIC): > 64 µg/mL
[2]; [7]
  EC-1 (MIC): 64 µg/mL

## CC(CCn1ccc(-c2ccc(Cl)c(C#N)c2)cc1=O)(C(=O)NO)S(C)(=O)=O (centres unmarked) [Example 135, 4-[4-(4-chloro-3-cyanophenyl)-2-oxopyridin-1(2H)-yl]-N-hydroxy-2-methyl-2-(methylsulfonyl)butanamide]
[1]; [6]
  PA-7 (MIC): 16 µg/mL
[2]; [7]
  EC-1 (MIC): 16 µg/mL

## COc1ccc(-c2ccn(CCC(C)(C(=O)NO)S(C)(=O)=O)c(=O)c2)cc1OC (centres unmarked) [Example 138, 4-[4-(3,4-dimethoxyphenyl)-2-oxopyridin-1(2H)-yl]-N-hydroxy-2-methyl-2-(methylsulfonyl)butanamide]
[1]; [6]
  PA-7 (MIC): 64 µg/mL
[2]; [7]
  EC-1 (MIC): 64 µg/mL

## C[C@@](CCn1ccc(-c2ccc(-c3cccnn3)cc2)cc1=O)(C(=O)NO)S(C)(=O)=O [Example 453, (2R)-N-hydroxy-2-methyl-2-(methylsulfonyl)-4-[2-oxo-4-(4-pyridazin-3-ylphenyl)pyridin-1(2H)-yl]butanamide]
[1]; strain PA-7
  PA-7 (MIC): 8 µg/mL
[2]; strain EC-1
  EC-1 (MIC): 4 µg/mL

## CC(CCn1ccc(-c2ccc(OCCCN3CCCCC3)cc2)cc1=O)(C(=O)NO)S(C)(=O)=O (centres unmarked) [Example 77]
[1]; [6]
  PA-7 (MIC): 64 µg/mL
[2]; [7]
  EC-1 (MIC): 64 µg/mL

## Cc1ccc(S(=O)(=O)N(C)C)cc1-c1ccn(CCC(C)(C(=O)NO)S(C)(=O)=O)c(=O)c1 (centres unmarked) [Example 160, 4-[4-{5-[(dimethylamino)sulfonyl]-2-methylphenyl}-2-oxopyridin-1(2H)-yl]-N-hydroxy-2-methyl-2-(methylsulfonyl)butanamide]
[1]; [6]
  PA-7 (MIC): > 64 µg/mL
[2]; [7]
  EC-1 (MIC): > 64 µg/mL

## COc1cc(OCCCO)ccc1-c1ccn(CCC(C)(C(=O)NO)S(C)(=O)=O)c(=O)c1 (centres unmarked) [Example 253, N-hydroxy-4-{4-[4-(3-hydroxypropoxy)-2-methoxyphenyl]-2-oxopyridin-1(2H)-yl}-2-methyl-2-(methylsulfonyl)butanamide]
[1]; strain PA-7
  PA-7 (MIC): > 64 µg/mL
[2]; strain EC-1
  EC-1 (MIC): 16 µg/mL

## CC(CCn1ccc(-c2ccncc2)cc1=O)(C(=O)NO)S(C)(=O)=O (centres unmarked) [Example 218, N-hydroxy-2-methyl-2-(methylsulfonyl)-4-(2-oxo-4,4′-bipyridin-1(2H)-yl)butanamide]
[1]; strain PA-7
  PA-7 (MIC): 64 µg/mL
[2]; strain EC-1
  EC-1 (MIC): > 64 µg/mL

## CCNC(=O)c1cc(F)cc(-c2ccn(CCC(C)(C(=O)NO)S(C)(=O)=O)c(=O)c2)c1 (centres unmarked) [Example 103, N-ethyl-3-fluoro-5-{1-[4-(hydroxyamino)-3-methyl-3-(methylsulfonyl)-4-oxobutyl]-2-oxo-1,2-dihydropyridin-4-yl}benzamide]
[1]; [6]
  PA-7 (MIC): > 64 µg/mL
[2]; [7]
  EC-1 (MIC): > 64 µg/mL

## Cc1ccnc(-c2ccc(-c3ccn(CC[C@](C)(C(=O)NO)S(C)(=O)=O)c(=O)c3)cc2)n1 [Example 375, (2R)-N-hydroxy-2-methyl-4-{4-[4-(4-methylpyrimidin-2-yl)phenyl]-2-oxopyridin-1(2H)-yl}-2-(methylsulfonyl)butanamide]
[1]; strain PA-7
  PA-7 (MIC): 4 µg/mL
[2]; strain EC-1
  EC-1 (MIC): 0.5 µg/mL

## CC(CCn1ccc(-c2cccc3cnccc23)cc1=O)(C(=O)NO)S(C)(=O)=O (centres unmarked) [Example 215, N-hydroxy-4-(4-isoquinolin-5-yl-2-oxopyridin-1(2H)-yl)-2-methyl-2-(methylsulfonyl)butanamide]
[1]; strain PA-7
  PA-7 (MIC): 64 µg/mL
[2]; strain EC-1
  EC-1 (MIC): > 64 µg/mL

## C[C@@](CCn1ccc(-c2ccc(-c3cnsc3)cc2)cc1=O)(C(=O)NO)S(C)(=O)=O [Example 380, (2R)-N-hydroxy-4-[4-(4-isothiazol-4-ylphenyl)-2-oxopyridin-1(2H)-yl]-2-methyl-2-(methylsulfonyl)butanamide]
[1]; strain PA-7
  PA-7 (MIC): 1 µg/mL
[2]; strain EC-1
  EC-1 (MIC): 0.5 µg/mL

## CC(C#N)Sc1cccc(-c2ccn(CC[C@](C)(C(=O)NO)S(C)(=O)=O)c(=O)c2)c1 (some centres unmarked) [Example 475]
[1]; strain PA-7
  PA-7 (MIC): 8 µg/mL
[2]; strain EC-1
  EC-1 (MIC): 8 µg/mL

## C[C@@](CCn1ccc(-c2ccc(F)cc2F)cc1=O)(C(=O)NO)S(C)(=O)=O [Example 321, (2R)-4-[4-(2,4-difluorophenyl)-2-oxopyridin-1(2H)-yl]-N-hydroxy-2-methyl-2-(methylsulfonyl)butanamide]
[1]; strain PA-7
  PA-7 (MIC): 1 µg/mL
[2]; strain EC-1
  EC-1 (MIC): 1 µg/mL

## CC(CCn1ccc(-c2ccc(-c3ccc(F)cc3)nc2)cc1=O)(C(=O)NO)S(C)(=O)=O (centres unmarked) [Example 281, 4-[6-(4-fluorophenyl)-2′-oxo-3,4′-bipyridin-1′(2′H)-yl]-N-hydroxy-2-methyl-2-(methylsulfonyl)butanamide]
[1]; strain PA-7
  PA-7 (MIC): 8 µg/mL
[2]; strain EC-1
  EC-1 (MIC): 0.5 µg/mL

## CCOc1ccc(-c2ccn(CCC(C)(C(=O)NO)S(C)(=O)=O)c(=O)c2)cc1F (centres unmarked) [Example 184, 4-[4-(4-ethoxy-3-fluorophenyl)-2-oxopyridin-1(2H)-yl]-N-hydroxy-2-methyl-2-(methylsulfonyl)butanamide]
[1]; strain PA-7
  PA-7 (MIC): 2 µg/mL
[2]; strain EC-1
  EC-1 (MIC): 0.5 µg/mL

## Cn1ccnc1-c1ccc(-c2ccn(CCC(C)(C(=O)NO)S(C)(=O)=O)c(=O)c2)cc1 (centres unmarked) [Example 104, N-hydroxy-2-methyl-4-{4-[4-(1-methyl-1H-imidazol-2-yl)phenyl]-2-oxopyridin-1(2H)-yl}-2-(methylsulfonyl)butanamide]
[1]; [6]
  PA-7 (MIC): > 64 µg/mL
[2]; [7]
  EC-1 (MIC): > 64 µg/mL

## CC(CCn1ccc(-c2cccc(Cl)c2Cl)cc1=O)(C(=O)NO)S(C)(=O)=O (centres unmarked) [Example 163, 4-[4-(2,3-dichlorophenyl)-2-oxopyridin-1(2H)-yl]-N-hydroxy-2-methyl-2-(methylsulfonyl)butanamide]
[1]; [6]
  PA-7 (MIC): 1 µg/mL
[2]; [7]
  EC-1 (MIC): 0.5 µg/mL

## CC(CCn1ccc(-c2ccc3c(ccn3CCO)c2)cc1=O)(C(=O)NO)S(C)(=O)=O (centres unmarked) [Example 265, N-hydroxy-4-{4-[1-(2-hydroxyethyl)-1H-indol-5-yl]-2-oxopyridin-1(2H)-yl}-2-methyl-2-(methylsulfonyl)butanamide]
[1]; strain PA-7
  PA-7 (MIC): 16 µg/mL
[2]; strain EC-1
  EC-1 (MIC): 4 µg/mL
